One test has as its system HDF cell line. Briefly: Cell penetration efficiency in skin cells (HDF). In kind it is cell-based. The following applies: 4 μM FITC-conjugated CPP, one hour. As to the method: (§1) Subsequently, to confirm whether the CPPs according to the present invention show excellent cell permeability into different types of cells/tissues, various tissue-derived cells were treated with biologically active molecule-conjugated CPPs to compare its delivery capacity with TAT. As in the previous examples, each cell was aliquoted in a plate at an appropriate density, and cultured in a 10% FBS-added medium under a condition of 37° C. and 5% CO2 for 24 hours. Subsequently, the cells were treated with 4 μM each of FITC-conjugated CPP or FITC-conjugated TAT and incubated for one hour. After the completion of the incubation, the cells were transferred to a sterile tube using 0.25% trypsin and centrifuged to remove the medium. Afterward, the cells were washed with 500 μL of D-PBS twice to completely remove the medium, and finally, resuspended in 400 μL of D-PBS and intracellular fluorescence was measured by flow cytometry (FACSCanto II).

The next test relates to SNU-46 cell line. The test can be described thus: Cell penetration efficiency using laryngeal cells. In kind it is cell-based. Particulars: SNU-46 laryngeal cells, 4 μM FITC-conjugated CPP, one hour. How it is done: as §1
In another test the test system is monocytes. Briefly: Cell penetration efficiency using monocytes. The class given is cell-based. The following applies: 4 μM FITC-conjugated CPP, one hour. As to the method: as §1
For a further test, the system named is HeLa cell line. Briefly: Cell penetration efficiency using cervical cancer cells. The class given is cell-based. The following applies: 4 μM FITC-conjugated CPP, one hour. As to the method:
as §1

For another test, the system named is HT1080 cell line. Briefly: Cell penetration efficiency using connective tissue (fibrosarcoma) cells. The following applies: 4 μM FITC-conjugated CPP, one hour. The class given is cell-based. How it is done: as §1
Another test deals with SH-SY5Y cells. Briefly: Cell penetration efficiency in human neuroblastoma cells, 4 μM, flow cytometry. In kind it is cell-based. The following applies: one hour; for cell permeability compared with TAT: 4 μM FITC-conjugated CPP, flow cytometry; for Score / Score/TAT: 4 μM FITC-conjugated peptide; for Score: intracellular fluorescence by flow cytometry; for Score/TAT: ratio to FITC-conjugated TAT. How it is done:
The cell penetration efficiency of the cationic CPPs selected in Example 1 was evaluated in neuroblastoma. In further detail, SH-SYSY cells, which is a human neuroblastoma cell line, were seeded in 24-well plates to have a cell density of 1×10^7 cells/well, and cultured in 10% FBS-added DMEM under conditions of 37° C. and 5% CO2 for 24 hours. In addition, the cells were treated with 4 μM each of FITC-conjugated CPPs (C12, C14, C16, C31, C52, and C67), or FITC-conjugated TAT, and incubated for one hour. After the termination of the incubation, the cells were transferred to a sterile tube using 0.25% trypsin and centrifuged to remove the medium. Afterward, the cells were washed with 500 μL of D-PBS twice to completely remove the medium, and finally, resuspended in 400 μL of D-PBS and intracellular fluorescence was measured by flow cytometry (FACSCanto II).
(§2) To evaluate the cell penetration efficiency of the additionally selected cationic CPPs, an experiment was conducted using human epidermal cells or human neuroblastoma cells. In further detail, HaCAT cells, which is a human epidermal cell line, or SH-SYSY cells, which is a human neuroblastoma cell line, were seeded in 24-well plates to have a cell density of 1×10^7 cells/well and cultured in 10% FBS-added DMEM under conditions of 37° C. and 5% CO2 for 24 hours. In addition, the cells were treated with 4 μM each of FITC-conjugated peptides and FITC-conjugated TAT for one hour. After the completion of the culture, the cells were transferred to a sterile tube using 0.25% trypsin and centrifuged to remove the medium. Afterward, the cells were washed with 500 μL of D-PBS twice to completely remove the medium, and finally, resuspended in 400 μL of D-PBS and intracellular fluorescence was measured by flow cytometry (FACSCanto II).
as §1

The subject of the next test is HaCAT cells. Briefly: Cell penetration efficiency in human epidermal (skin) cells, 4 μM, flow cytometry. Particulars: 4 μM FITC-conjugated CPP, one hour. In kind it is cell-based. How it is done:
The cell penetration efficiency of the cationic CPPs selected in Example 1 was evaluated using human epidermal cells. In further detail, HaCAT cells, which is a human epidermal cell line, were seeded in 24-well plates to have a cell density of 1×10^7 cells/well, and cultured in 10% FBS-added DMEM under conditions of 37° C. and 5% CO2 for 24 hours. Subsequently, the cells were treated 4 μM each of the FITC-conjugated CPP or FITC-conjugated TAT, and incubated for one hour. After the termination of the incubation, the cells were transferred to a sterile tube using 0.25% trypsin, and the medium was removed through centrifugation. Afterward, the cells were washed with 500 μL of D-PBS twice to completely remove the medium, and finally, resuspended in 400 μL of D-PBS and intracellular fluorescence was measured by flow cytometry (FACSCanto II).
as §2, §1

A further test concerns A-427 cell line. Briefly: Cell penetration efficiency using lung cells. In kind it is cell-based. Particulars: A-427 lung cells, 4 μM FITC-conjugated CPP, one hour. As to the method: as §1
A further test has as its system HEK293T cell line. Briefly: Cell penetration efficiency using kidney cells. The class given is cell-based. The following applies: 4 μM FITC-conjugated CPP, one hour. As to the method: as §1
In a further test the test system is HGB cell line. The test can be described thus: Cell penetration efficiency in glioblastoma cells. The class given is cell-based, human. The following applies: 4 μM FITC-conjugated CPP, one hour. How it is done: as §1
The next test relates to macrophages. The test can be described thus: Cell penetration efficiency using macrophages. In kind it is cell-based. Particulars: macrophages differentiated from THP1 cells, 4 μM FITC-conjugated CPP, one hour. How it is done: as §1, with “II). Macrophages were used by inducing differentiation from THP1 cells. Specifically, the THP-1 cells were aliquoted on a cover glass laid on a 24-well plate to have a density of 6×10^4 cells/well, and after the addition of 100 ng/mL of phorbol 12-myristate 13-acetate (PMA), the cells were incubated for 48 hours to induce the differentiation into macrophages. After 48 hours, the cells were washed with Dulbecco's phosphate buffered saline (DPBS) to perform an experiment.” for “II).”

Consider KRRKLRIKRRIRVP [C208], for which the “cell permeability compared with TAT” value in the test with HDF cell line, in the test with SNU-46 cell line, in the test on monocytes, with HeLa cell line, in the test with HT1080 cell line and in the test with SH-SY5Y cells was “higher cell permeability” in each case. In addition, the “cell permeability compared with TAT” value in the test on HaCAT cells is “higher cell permeability”. Besides, the Score with SH-SY5Y cells came to 1326. Also, the Score/TAT in the test on SH-SY5Y cells was determined as 2.555.
Consider RLREKRRSLKRKRP [C262], for which the “cell permeability compared with TAT” value in the test on A-427 cell line, with HeLa cell line, in the test with HT1080 cell line and in the test on HEK293T cell line was “higher cell permeability” each time. The sequence further gave a Score with SH-SY5Y cells of 345. Also, the Score/TAT in the test on SH-SY5Y cells amounted to 0.665.
As to RVRALARRRRQARP [C282], the “cell permeability compared with TAT” value in the test on A-427 cell line, in the test on HeLa cell line, in the test with HT1080 cell line and in the test with HEK293T cell line was “higher cell permeability” in each case. Also, the Score with SH-SY5Y cells was found to be 441. For the same sequence, the Score/TAT with SH-SY5Y cells came to 0.850.
RPALKQRRWRRKKK [C117]: the “cell permeability compared with TAT” value in the test on HDF cell line, with SNU-46 cell line, with monocytes, with A-427 cell line, in the test on HeLa cell line and with HT1080 cell line was “higher cell permeability” throughout. Further, the “cell permeability compared with TAT” value in the test with SH-SY5Y cells, with HGB cell line and in the test on HaCAT cells was “higher cell permeability” throughout. Also, the Score in the test on SH-SY5Y cells is 936. In the test on SH-SY5Y cells, the Score/TAT worked out at 1.803.
Take KRKLKVRRKLREPR [C115]: in the test on monocytes, the “cell permeability compared with TAT” value is “higher cell permeability”. In addition, in the test on SH-SY5Y cells, the “cell permeability compared with TAT” value is reported as “higher cell permeability”, the Score was 563 and the Score/TAT worked out at 1.085.
Take MKRLLKVVRRRRRP [C201]: the “cell permeability compared with TAT” value in the test with SNU-46 cell line, with HeLa cell line, with SH-SY5Y cells, in the test with HGB cell line and with macrophages was “higher cell permeability” throughout. Also, the Score in the test with SH-SY5Y cells stood at 802. In the test on SH-SY5Y cells, the Score/TAT came to 1.545.
For RTRLLRRLRALKPR [C223], the “cell permeability compared with TAT” value in the test on monocytes and in the test on HeLa cell line was “higher cell permeability” in each case. In the test with SH-SY5Y cells, this sequence showed a Score of 408. The Score/TAT in the test with SH-SY5Y cells is 0.786.
Consider ARKNRMARQRRLRP [C45], for which the “cell permeability compared with TAT” value in the test with A-427 cell line is recorded as “higher cell permeability”. Besides, in the test on HT1080 cell line, the “cell permeability compared with TAT” value was “higher cell permeability”. In the test with SH-SY5Y cells, the “cell permeability compared with TAT” value is listed as “higher cell permeability”, the Score amounted to 570 and the Score/TAT worked out at 1.098.
Consider RIRALARRRDRRRP [C354], for which the “cell permeability compared with TAT” value in the test on A-427 cell line, with HeLa cell line, with HT1080 cell line, in the test with HEK293T cell line, with SH-SY5Y cells and in the test with HGB cell line was “higher cell permeability” each time. The sequence also registered a Score in the test on SH-SY5Y cells of 564. Also, the Score/TAT in the test with SH-SY5Y cells came to 1.087.
Regarding RRALRRRAQRRGAP [C181], the “cell permeability compared with TAT” value with HDF cell line, in the test with monocytes, with HeLa cell line, in the test with SH-SY5Y cells and in the test with HGB cell line was “higher cell permeability” each time. In the test on SH-SY5Y cells, this sequence displayed a Score of 682. In addition, in the test with SH-SY5Y cells, the Score/TAT came to 1.314.
As for RVRSLARRARRRTP [C401], the “cell permeability compared with TAT” value with A-427 cell line and with HT1080 cell line was “higher cell permeability” in each case. This sequence also returned a Score in the test on SH-SY5Y cells of 425. The Score/TAT in the test with SH-SY5Y cells is on record as 0.819.
For the sequence RLRALVRRKQRARP [C82], the “cell permeability compared with TAT” value with monocytes, in the test with A-427 cell line, in the test with HT1080 cell line, with SH-SY5Y cells and with HaCAT cells was “higher cell permeability” throughout. In the test with SH-SY5Y cells, this sequence came in with a Score of 628. In addition, in the test on SH-SY5Y cells, the Score/TAT came to 1.210.
As to RPIRKLLRQARQRR [C131], the “cell permeability compared with TAT” value in the test with HDF cell line, in the test on monocytes, in the test with HeLa cell line, in the test with SH-SY5Y cells and in the test on HGB cell line was “higher cell permeability” in each case. The same sequence returned a Score with SH-SY5Y cells of 790. Further, in the test with SH-SY5Y cells, the Score/TAT is recorded as 1.522.
Turning to YRPRRKKATKKLKR [C284], the “cell permeability compared with TAT” value in the test with HeLa cell line, in the test with HEK293T cell line, with SH-SY5Y cells, in the test on HGB cell line and in the test on macrophages was “higher cell permeability” throughout. Besides, in the test on SH-SY5Y cells, the Score came to 532. For the same sequence, in the test with SH-SY5Y cells, the Score/TAT is given as 1.025.

The record behind these values is patent US11884750B2, “Cationic cell penetrating peptides and the use thereof” (CELLTROY CO., LTD., priority 2021, dated 2024).
